These results are taken from ChEMBL document CHEMBL5058564, “EUbOPEN Chemogenomics Library 2 (Incucyte)” (2022).

Format in all cases: toxicity, cell-based
The subject of one series is U2OS. As to the kind of experiment: Incucyte cell viability with U2OS. As to conditions: human, 10 µM, compound concentration 10 uM.
For the next series, the system named is HEK-293T. As to the kind of experiment: Incucyte cell viability with HEK293T. To be noted: human, 10 µM, compound concentration 10 uM.
The test system of a further series is Fibroblast. The series is described as follows: Incucyte cell viability with human fibroblast. To be noted: 10 µM, compound concentration 10 uM.
[1] abbreviates: 0 h, replicate number 1, timepoint 0 hours.
Where [2] appears, read: 0 h, replicate number 2, timepoint 0 hours.
The mark [3] stands for this setting: 6 h, replicate number 1, timepoint 6 hours.
The mark [4] stands for this setting: 12 h, replicate number 1, timepoint 12 hours.
Where [5] appears, read: 12 h, replicate number 2, timepoint 12 hours.
[6] abbreviates: 18 h, replicate number 1, timepoint 18 hours.
Where [7] appears, read: 18 h, replicate number 2, timepoint 18 hours.
[8] abbreviates: 24 h, replicate number 1, timepoint 24 hours.
Setting [9] is: 24 h, replicate number 2, timepoint 24 hours.
The mark [10] stands for this setting: 6 h, replicate number 2, timepoint 6 hours.

SMILES strings stand for the structures.
Note: unitless GR value; below 1 slowed growth and below 0 cell loss.

On to `COc1cc(OC)cc(C(=O)NNC(=O)Nc2cccc3ccccc23)c1`, for which the “Growth Rate” value with U2OS (setting [1]) is recorded as 0.7; with U2OS (setting [2]), -1; in the series on U2OS (setting [3]), 0.36; in the series on U2OS (setting [4]), 1; with U2OS (setting [5]) it was 0.87; with U2OS (setting [6]), 0.78. Further, the “Growth Rate” value is reported as 0.77 with U2OS (setting [7]); 0.87 in the series on U2OS (setting [8]); 0.86 in the series on U2OS (setting [9]); 0.01 in the series with HEK-293T (setting [1]); 0.45 with HEK-293T (setting [2]); 0.97 in the series on HEK-293T (setting [6]). In addition, the figures for the “Growth Rate” value with Fibroblast (setting [3]) and in the series on Fibroblast (setting [4]) were 0.64 and 0.93, respectively.
For the compound `CCN1C(=CC(C)=O)Sc2ccc(OC)cc21`, the “Growth Rate” value with U2OS (setting [1]) is given as -0.04; with U2OS (setting [2]), -0.03; in the series with U2OS (setting [3]), 0.65; in the series with U2OS (setting [4]), 0.7; with U2OS (setting [5]), 0.88; in the series on U2OS (setting [6]) it was 0.63. In addition, the “Growth Rate” value in the series with U2OS (setting [8]) is listed as 0.89; with HEK-293T (setting [2]) it was -1; with HEK-293T (setting [3]) it was 0.17; in the series on HEK-293T (setting [4]), 0.45; with HEK-293T (setting [6]), 0.69; with HEK-293T (setting [8]), 0.72. In addition, the “Growth Rate” value with Fibroblast (setting [2]) is reported as 0.29; with Fibroblast (setting [3]) it was -0.68; in the series with Fibroblast (setting [4]), 0.45; with Fibroblast (setting [6]), 0.69; in the series with Fibroblast (setting [8]) it was 0.7.
Take `CC[C@H]1CN2CCc3cc(OC)c(OC)cc3[C@@H]2C[C@@H]1C[C@H]1NCCc2cc(OC)c(OC)cc21` [EMETINE]: the “Growth Rate” value is reported as -1 with U2OS (setting [2]); 0.25 in the series with U2OS (setting [3]); 0.89 in the series on U2OS (setting [10]); 0.43 in the series on U2OS (setting [4]); 0.49 with U2OS (setting [5]); 0.21 in the series on U2OS (setting [6]). The “Growth Rate” value in the series with U2OS (setting [7]) is recorded as 0.25; with U2OS (setting [8]), 0; with U2OS (setting [9]) it was 0.17; in the series on HEK-293T (setting [2]), 0.89; in the series with HEK-293T (setting [3]), -0.64; in the series on HEK-293T (setting [10]) it was -0.77. The “Growth Rate” value is reported as -0.71 with HEK-293T (setting [4]); -0.68 in the series on HEK-293T (setting [5]); -0.56 with HEK-293T (setting [6]); -0.65 in the series with HEK-293T (setting [7]); -0.45 in the series on HEK-293T (setting [8]); -0.51 with HEK-293T (setting [9]). In addition, the “Growth Rate” value with Fibroblast (setting [2]) is 0.68; with Fibroblast (setting [3]), -0.4; in the series on Fibroblast (setting [10]), -0.75; in the series on Fibroblast (setting [4]) it was -0.71; in the series on Fibroblast (setting [5]), -0.61; with Fibroblast (setting [6]) it was -0.63. Besides, the “Growth Rate” value in the series on Fibroblast (setting [7]) is reported as -0.61; in the series on Fibroblast (setting [8]), -0.47; with Fibroblast (setting [9]) it was -0.61.
As for `CCCCCCCCCCCCCCC[C@@H](O)[C@@H](N)COP(=O)(O)O`, the “Growth Rate” value in the series with U2OS (setting [4]) is listed as 0.64; with HEK-293T (setting [2]), 0.71; with HEK-293T (setting [3]), 0.25; in the series on HEK-293T (setting [4]) it was 0.48; in the series with HEK-293T (setting [5]), 0.76; in the series with HEK-293T (setting [6]) it was 0.51. The “Growth Rate” value was 0.88 in the series on HEK-293T (setting [7]); 0.63 in the series on HEK-293T (setting [8]); 0.74 in the series on HEK-293T (setting [9]); 0.12 with Fibroblast (setting [2]); -0.14 with Fibroblast (setting [3]); 0.42 in the series with Fibroblast (setting [10]). The “Growth Rate” value worked out at 0.44 in the series with Fibroblast (setting [4]); 0.66 with Fibroblast (setting [5]); 0.43 with Fibroblast (setting [6]); 0.7 with Fibroblast (setting [7]); 0.23 with Fibroblast (setting [8]); 0.73 with Fibroblast (setting [9]).
For the compound `CCCCC[C@H](O)/C=C/[C@H]1CCC(=O)[C@@H]1CCCCCCC(=O)O`, the “Growth Rate” value in the series with U2OS (setting [1]) stood at 0.47; in the series on U2OS (setting [3]) it was 0.51; in the series on U2OS (setting [4]), 0.66; in the series on U2OS (setting [6]), 0.5; in the series with U2OS (setting [8]), 0.96; with HEK-293T (setting [1]), 0.81. Also, the “Growth Rate” value with HEK-293T (setting [2]) is -0.24; with HEK-293T (setting [3]) it was 0.64; in the series on HEK-293T (setting [10]) it was 0.48; in the series on HEK-293T (setting [4]), 0.56; in the series with HEK-293T (setting [5]), 0.7; in the series with HEK-293T (setting [6]), 0.7. Further, the “Growth Rate” value with HEK-293T (setting [7]) was 0.73; in the series with HEK-293T (setting [8]), 0.77; in the series on HEK-293T (setting [9]) it was 0.67; in the series with Fibroblast (setting [1]), -0.34; with Fibroblast (setting [2]) it was -0.08; with Fibroblast (setting [8]), 0.96.
For `Cc1ccc(C(C)(O)c2nc3ccccc3s2)c(C)c1` (configuration not stated), the “Growth Rate” value with U2OS (setting [1]) was -0.06; with U2OS (setting [10]), 0.88; in the series on U2OS (setting [6]) it was 0.99; in the series with U2OS (setting [7]) it was 0.95; in the series with HEK-293T (setting [1]), 0.98; in the series on HEK-293T (setting [2]), 0.84. For the same compound, the “Growth Rate” value was determined as 0.99 in the series with HEK-293T (setting [4]), 0.44 in the series with Fibroblast (setting [1]), 0.92 with Fibroblast (setting [2]) and 0.67 with Fibroblast (setting [3]).
As to `C[C@H](NC(=O)CNC(=O)c1cccc(Cl)c1)c1ccccc1`, the “Growth Rate” value in the series with U2OS (setting [1]) is reported as -0.7; in the series on U2OS (setting [10]) it was 0.8; in the series on U2OS (setting [5]) it was 0.94; with U2OS (setting [7]) it was 0.91; in the series with U2OS (setting [9]), 0.98; in the series with HEK-293T (setting [2]), 0.84. The “Growth Rate” value in the series on HEK-293T (setting [5]) is 0.96; in the series with Fibroblast (setting [1]), 0.45; in the series with Fibroblast (setting [2]), 0.36.
As to `O=C(NCCO)c1cccc(-c2cc(Nc3ccc(OC(F)(F)F)cc3)ncn2)c1`, the “Growth Rate” value in the series with U2OS (setting [1]) is -0.12; with U2OS (setting [2]), 0.42; with U2OS (setting [3]), 0.49; in the series on U2OS (setting [10]) it was 1; with U2OS (setting [4]), 0.52; with U2OS (setting [5]), 0.83. Also, the “Growth Rate” value is given as 0.47 in the series with U2OS (setting [6]); 0.99 in the series with U2OS (setting [7]); 0.79 with U2OS (setting [8]); 0.91 in the series with U2OS (setting [9]); -0.41 with HEK-293T (setting [3]); -0.4 in the series with HEK-293T (setting [10]). For the same compound, the “Growth Rate” value with HEK-293T (setting [4]) is recorded as -0.19; with HEK-293T (setting [5]) it was -0.13; in the series on HEK-293T (setting [6]), 0.05; in the series on HEK-293T (setting [7]), 0.17; in the series on HEK-293T (setting [8]) it was 0.15; in the series with HEK-293T (setting [9]), 0.26. Besides, the “Growth Rate” value in the series with Fibroblast (setting [2]) is given as 0.6; in the series with Fibroblast (setting [3]), -0.91; in the series on Fibroblast (setting [4]) it was -0.72; with Fibroblast (setting [5]), 0.04; in the series on Fibroblast (setting [6]), -0.61; in the series with Fibroblast (setting [7]) it was 0.03. Also, the “Growth Rate” value with Fibroblast (setting [8]) is -0.55; with Fibroblast (setting [9]), 0.06.
In the case of `Cc1cc(NC(=O)NCCN2CCC(O)(Cc3ccccc3)CC2)c2ccccc2n1` [PALOSURAN], the “Growth Rate” value was 0.34 in the series on U2OS (setting [1]); 0.13 in the series with U2OS (setting [2]); 0.57 with U2OS (setting [3]); 0.73 with U2OS (setting [10]); 0.33 with U2OS (setting [4]); 0.73 with U2OS (setting [6]). Further, the “Growth Rate” value is 0.98 in the series with U2OS (setting [7]); 0.87 with U2OS (setting [8]); 0.55 in the series on HEK-293T (setting [1]); -1 in the series on HEK-293T (setting [2]); 0.95 in the series on HEK-293T (setting [3]); 0.83 with HEK-293T (setting [4]). Moreover, the “Growth Rate” value in the series with Fibroblast (setting [2]) is given as 0.27; with Fibroblast (setting [3]), -0.3; with Fibroblast (setting [4]), 0.72; with Fibroblast (setting [6]), 0.32; in the series on Fibroblast (setting [8]), 0.22.
As to `COc1cc(C(=O)N(CCCc2ccccc2)Cc2ccc(CC(=O)O)cc2)cc(OC)c1C`, the “Growth Rate” value in the series on U2OS (setting [1]) was -0.86; with U2OS (setting [10]) it was 0.79; with U2OS (setting [5]), 0.94; in the series with U2OS (setting [7]), 0.97; in the series with U2OS (setting [9]), 0.96; in the series on HEK-293T (setting [1]), 0.55. Moreover, the “Growth Rate” value with HEK-293T (setting [2]) was 0.84; in the series with Fibroblast (setting [1]), -0.55; in the series with Fibroblast (setting [2]), 0.01.
Regarding `C[C@H]1CN(C[C@H](Cc2ccccc2)C(=O)NCC(=O)O)CC[C@@]1(C)c1cccc(O)c1` [ALVIMOPAN], the “Growth Rate” value with U2OS (setting [2]) was determined as 0.76; in the series with U2OS (setting [3]), 0.22; in the series with U2OS (setting [5]), 0.99; in the series on U2OS (setting [6]) it was 0.91; in the series on U2OS (setting [7]), 0.92; in the series with U2OS (setting [9]) it was 0.94. The “Growth Rate” value turned out to be 0.62 with HEK-293T (setting [1]); 0.08 in the series on HEK-293T (setting [2]); 0.52 with HEK-293T (setting [10]); 0.9 with HEK-293T (setting [4]); 0.53 in the series on HEK-293T (setting [5]); 1 in the series with HEK-293T (setting [6]). The “Growth Rate” value is recorded as 0.88 with HEK-293T (setting [7]); 0.93 in the series on HEK-293T (setting [8]); 0.85 in the series on HEK-293T (setting [9]); 0.37 in the series with Fibroblast (setting [1]); -0.31 in the series with Fibroblast (setting [2]).
